Source: the supplement of paper PMC10307832

How the values were obtained:
Experiment in all cases: relative viability (nuclei count vs DMSO), 5 days (fraction); higher = more cells survive
[1] = compound: CC(C)C[C@H](NC(=O)[C@H](CCc1ccccc1)NC(=O)CN1CCOCC1)C(=O)N[C@@H](Cc1ccccc1)C(=O)N[C@@H](CC(C)C)C(=O)[C@@]1(C)CO1 [Carfilzomib] + CC(=O)c1c(C)c2cnc(Nc3ccc(N4CCNCC4)cn3)nc2n(C2CCCC2)c1=O [Palbociclib] (partner 0.5 µM)
Outline: (§1)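 One day after seeding in 1536-well plates, lung cancer cell lines were dosed by pin tool. Dosing was either single-drug or a fixed anchor-drug dose plus five library-drug doses (not always all listed) in √10 steps. After 5 days, nuclei were stained in one fix-and-stain step and counted on 4× images, and relative viability is the nuclei count of treated wells over that of vehicle wells, given as the median of duplicate plates.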

[2] = compound: O=C(c1cc(Cc2n[nH]c(=O)c3ccccc23)ccc1F)N1CCN(C(=O)C2CC2)CC1 [Olaparib] + CC(=O)Nc1cccc(-n2c(=O)n(C3CC3)c(=O)c3c(Nc4ccc(I)cc4F)n(C)c(=O)c(C)c32)c1 [Trametinib] (partner 0.02 µM)
Outline: as §1

[3] = compound: O=C(c1cc(Cc2n[nH]c(=O)c3ccccc23)ccc1F)N1CCN(C(=O)C2CC2)CC1 [Olaparib] + Cc1nc(NC(=O)N2CCC[C@H]2C(N)=O)sc1-c1ccnc(C(C)(C)C(F)(F)F)c1 [Alpelisib] (partner 2 µM)
Outline: as §1

[4] = compound: CC(C)C[C@H](NC(=O)[C@H](CCc1ccccc1)NC(=O)CN1CCOCC1)C(=O)N[C@@H](Cc1ccccc1)C(=O)N[C@@H](CC(C)C)C(=O)[C@@]1(C)CO1 [Carfilzomib] + CS(=O)(=O)N1CCN(Cc2cc3nc(-c4cccc5[nH]ncc45)nc(N4CCOCC4)c3s2)CC1 [Pictilisib] (partner 1 µM)
Outline: as §1

Row | Cell Line | relative viability ([1]; first compound 0.001 µM) | relative viability ([1]; first compound 0.003162 µM) | relative viability ([1]; first compound 0.01 µM) | relative viability ([1]; first compound 0.03162 µM) | relative viability ([1]; first compound 0.1 µM) | relative viability ([2]; first compound 0.08 µM) | relative viability ([2]; first compound 0.253 µM) | relative viability ([2]; first compound 2.53 µM) | relative viability ([2]; first compound 8 µM) | relative viability ([3]; first compound 0.08 µM) | relative viability ([3]; first compound 0.253 µM) | relative viability ([3]; first compound 2.53 µM) | relative viability ([3]; first compound 8 µM) | relative viability ([4]; first compound 0.001 µM) | relative viability ([4]; first compound 0.003162 µM) | relative viability ([4]; first compound 0.01 µM) | relative viability ([4]; first compound 0.03162 µM) | relative viability ([4]; first compound 0.1 µM)
1 | NCI-H2126 | 0.374 | 0.372 | 0.337 | 0.346 | 0.278 | 0.527 | 0.55 | 0.584 | 0.596 | 0.794 | 0.743 | 0.712 | 0.728 | 0.557 | 0.477 | 0.512 | 0.555 | 0.446
2 | NCI-H2170 | 0.38 | 0.437 | 0.456 | 0.339 | 0.127 | 0.937 | 0.925 | 0.883 | 0.8 | 0.846 | 0.838 | 0.849 | 0.718 | 0.317 | 0.349 | 0.327 | 0.283 | 0.163
3 | NCI-H2228 | 0.466 | 0.886 | 0.557 | 0.104 | 0.105 | 0.609 | 0.344 | 0.495 | 0.521 | 0.746 | 0.657 | 0.78 | 0.534 | 0.465 | 0.468 | 0.206 | 0.102 | 0.115
4 | NCI-H2347 | 0.463 | 0.427 | 0.438 | 0.382 | 0.332 | 0.282 | 0.274 | 0.274 | 0.248 | 1.11 | 0.978 | 0.932 | 0.783 | 0.662 | 0.623 | 0.67 | 0.549 | 0.318
5 | NCI-H2405 | 0.498 | 0.527 | 0.539 | 0.489 | 0.136 | 0.767 | 0.597 | 0.677 | 0.641 | 1.01 | 0.816 | 0.728 | 0.73 |  | 0.583 | 0.521 | 0.321 | 0.174
6 | NCI-H3122 | 0.238 | 0.222 | 0.191 | 0.187 | 0.132 | 0.219 | 0.238 | 0.241 | 0.203 | 0.7 | 0.638 | 0.867 | 0.668 | 0.585 | 0.615 | 0.6 | 0.602 | 0.34
7 | PC-3 [JPC-3] | 0.516 | 0.539 | 0.564 | 0.502 | 0.333 | 0.777 |  | 0.712 | 0.744 | 1.01 | 1.01 | 1.01 | 0.989 | 0.782 | 0.747 | 0.677 | 0.707 | 0.259
8 | PC-14 | 0.558 | 0.597 | 0.437 | 0.05 | 0.0508 | 0.937 | 0.646 | 0.434 | 0.456 | 0.988 | 0.859 | 0.931 | 0.792 | 0.55 | 0.816 | 0.364 | 0.0334 | 0.0646
9 | RERF-LC-KJ | 1.07 | 1.04 | 1.27 | 0.837 | 0.193 | 0.98 | 0.825 | 0.949 | 0.878 | 0.826 | 0.806 | 0.845 | 0.883 | 0.528 | 0.469 | 0.675 | 0.265 | 0.149
